Our source for the IC50 and AUC values is patent US8278465B2, “Coumarin derivative having antitumor activity” (Chugai Seiyaku Kabushiki Kaisha, priority 2006, dated 2012).

The test system of series [1] is human colon cancer cell line HCT116. In words: Measurement of cell proliferation inhibitory activity (Cell Counting Kit-8). Type of series: cell-based. As to conditions: Homo sapiens, HCT-116, 96 h, HCT116, 4 days incubation, read-out: IC50 (50% proliferation inhibitory concentration). The method, then: The cell proliferation inhibitory activities of the compounds and salts shown in Tables 1-1, 1-2 and Table 2 were measured as follows, using the human colon cancer cell line HCT116 (American Type Culture Collection, VA, USA). 2000 to 3000 cells per well of the human colon cancer cell line HCT116 was placed in a 96-well culture plate, a predetermined concentration (0.00038 μM, 0.00076 μM, 0.0015 μM, 0.0031 μM, 0.0061 μM, 0.012 μM, 0.024 μM, 0.049 μM, 0.098 μM, 0.195 μM, 0.39 μM, 0.78 μM, 1.56 μM, 3.13 μM, 6.25 μM, 12.5 μM, 25 μM or 50 μM) of the test substance was added thereto, and the mixture was then incubated at 37° C. under 5% CO2 environment for 4 days. On day 4 of incubation, the Cell Counting Kit-8 solution (Dojindo Laboratories) was added, the absorbance (measurement wavelength: 450 nm; reference wavelength: 615 nm) was measured following the protocol attached to the kit, and the 50% proliferation inhibitory concentration (IC50) was calculated.
On the technique in general: Tetrazolium assays rely on reduction of a dye to a coloured formazan, in cell work by metabolically active cells.

Series [2] is described as follows: Calculation of AUC value (plasma concentration after oral administration). It is filed as in vivo. The settings on record: BALB/c (nu/nu), mouse, mice, plasma 15 min to 24 h, trapezoidal method, read-out: AUC (area under the blood concentration-time curve). The method, then: The AUC (area under the blood concentration-time curve) values of the compounds and salts shown in Table 2 (only compound 1j-2-16-2 is Na salt; the others are free form) were calculated by administering the test substance to an animal and measuring its concentration in plasma. As the animals, BALB/c (nu/nu) mice (4 to 6 weeks old) procured from Japan Charles River Laboratories were used after a one-week taming period. As for the test substances other than Comp. 1, 5 mg/mL of the substance solution was given at 0.2 mL/10 g body weight (dose of the test substance: 100 mg/kg body weight). As for Comp. 1, 10 mg/mL of the substance solution was given at 0.2 mL/10 g body weight (dose of the test substance: 200 mg/kg body weight). Administration of the substance solution to a mouse was performed forcibly using an oral feeding tube. Blood was collected from the eye pit 15 minutes, 2 hours, 7 hours and 24 hours after administration of the substance solution, using a hematocrit tube treated with heparin. Paraoxon (final concentration: 1 mM) was added to the collected blood as a stabilizer, the mixture was centrifuged at 10000 rpm for 3 minutes, and plasma was separated. The plasma was stored in a freezer set to −80° C. until the time of measurement. The measurement was carried out as follows. 100 μL of distilled water to which the internal standard substance (a structural homolog, concentration adjusted appropriately depending on the compound used) had been added was added to 5 μL of the plasma, and then, a measurement sample was prepared through solid phase extraction processing using an Oasis HLB μElution Plate (Waters), and was analyzed by LC/MS/MS. The plasma concentration was calculated using a calibration curve prepared based on the ratio of standard substance to internal standard substance in control plasma of mice. The AUC was calculated from the data of plasma concentration of the drug by the trapezoidal method using Microsoft Excel 2003 (Microsoft).

SMILES strings stand for the structures. Read-outs that look alike come from different tables or passages of the source.

Consider `CCS(=O)(=O)Nc1cccc(Cc2c(C)c3cc(Cl)c(Oc4ncccn4)cc3oc2=O)c1` [Comp. 1, reference compound], for which the IC50 in series [1] (Table 1-2) is 160 nM. Besides, in series [2] (200 mg/kg body weight (Comp. 1)), the AUC was 97.6 µM·h.
For the compound `CNS(=O)(=O)Nc1cccc(Cc2c(C)c3ccc(OC(=O)N(C)C)cc3oc2=O)n1` [Compound 1j-1-13-2, Dimethylcarbamic acid 4-methyl-3-{6-(methylaminosulfonyl)aminopyridin-2-ylmethyl}-2-oxo-2H-1-benzopyran-7-yl ester], the IC50 in series [1] (Table 2) turned out to be 271 nM. The AUC in series [2] (in vivo, 100 mg/kg body weight) is 314 µM·h.
As to `Cc1c(Cc2cccc(NS(N)(=O)=O)c2F)c(=O)oc2cc(Oc3ncccn3)ccc12` [Compound 1j-2-4-1, 3-{2-Fluoro-3-(aminosulfonyl)aminobenzyl}-4-methyl-7-(pyrimidin-2-yloxy)-2-oxo-2H-1-benzopyran], the IC50 in series [1] (Table 2) was 150 nM. In addition, in series [2] (100 mg/kg body weight), the AUC was 811 µM·h.
The matching figures for `CNS(=O)(=O)Nc1cccc(Cc2c(C)c3ccc(Oc4ncccn4)cc3oc2=O)c1F` [Compound 1j-2-4-2, 3-{2-Fluoro-3-(methylaminosulfonyl)aminobenzyl}-4-methyl-7-(pyrimidin-2-yloxy)-2-oxo-2H-1-benzopyran]: 44.7 nM and 425 µM·h.
The matching figures for `CNS(=O)(=O)Nc1cccc(Cc2c(CF)c3ccc(Oc4ncccn4)cc3oc2=O)c1F` [Compound 1j-2-4-2F, 3-{2-Fluoro-3-(methylaminosulfonyl)aminobenzyl}-4-fluoromethyl-7-(pyrimidin-2-yloxy)-2-oxo-2H-1-benzopyran]: 165 nM and 317 µM·h.
For `CNS(=O)(=O)Nc1cccc(Cc2c(C)c3cc(F)c(Oc4ncccn4)cc3oc2=O)c1F` [Compound 1j-2-5-2, 3-{2-Fluoro-3-(methylaminosulfonyl)aminobenzyl}-4-methyl-7-(pyrimidin-2-yloxy)-6-fluoro-2-oxo-2H-1-benzopyran], the IC50 in series [1] (Table 2) was found to be 75.1 nM. Also, the AUC in series [2] (100 mg/kg body weight) was 344 µM·h.
Consider `CNS(=O)(=O)Nc1cc(Cc2c(C)c3cc(Cl)c(Oc4ncccn4)cc3oc2=O)ccn1` [Compound 1j-2-12-2, 3-{2-(Methylaminosulfonyl)aminopyridin-4-ylmethyl}-4-methyl-7-(pyrimidin-2-yloxy)-6-chloro-2-oxo-2H-1-benzopyran], for which, in series [1] (Table 2), the IC50 was determined as 282 nM. In series [2] (100 mg/kg body weight), the AUC was 252 µM·h.
In the case of `CNS(=O)(=O)Nc1nccc(Cc2c(C)c3ccc(Oc4ncccn4)cc3oc2=O)c1F` [Compound 1j-2-16-2, 3-{2-(Methylaminosulfonyl)amino-3-fluoropyridin-4-ylmethyl}-4-methyl-7-(pyrimidin-2-yloxy)-2-oxo-2H-1-benzopyran], the IC50 in series [1] (Table 2) worked out at 40.8 nM. Besides, the AUC in series [2] (100 mg/kg body weight) was 3200 µM·h.
Turning to `CNS(=O)(=O)Nc1cccc(Cc2c(C)c3ccc(Oc4nccs4)cc3oc2=O)c1` [Compound 1j-3-1-2, 3-{3-(Methylaminosulfonyl)aminobenzyl}-4-methyl-7-(thiazol-2-yloxy)-2-oxo-2H-1-benzopyran], the IC50 in series [1] (Table 2) was determined as 164 nM. Moreover, in series [2] (100 mg/kg body weight), the AUC was 199 µM·h.
The matching figures for `CNS(=O)(=O)Nc1cccc(Cc2c(C)c3cc(C)c(Oc4nccs4)cc3oc2=O)c1` [Compound 1j-3-8-2, 3-{3-(Methylaminosulfonyl)aminobenzyl}-4-methyl-7-(thiazol-2-yloxy)-6-methyl-2-oxo-2H-1-benzopyran]: 96.8 nM and 149 µM·h.
As to `CNS(=O)(=O)Nc1nccc(Cc2c(C)c3cc(C)c(Oc4nccs4)cc3oc2=O)c1Cl` [Compound 1j-3-44-2, 3-{2-(Methylaminosulfonyl)amino-3-chloropyridin-4-ylmethyl}-4-methyl-6-methyl-7-(thiazol-2-yloxy)-2-oxo-2H-1-benzopyran], the IC50 in series [1] (Table 1-2) was found to be 12.9 nM.
With `CNC(=O)CS(=O)(=O)Nc1cccc(Cc2c(C)c3cc(Cl)c(OC(=O)N(C)C)cc3oc2=O)c1` [Compound 1o-1-3-2, Dimethylcarbamic acid 3-(3-methylcarbamoylmethanesulfonylamino-benzyl)-6-chloro-4-methyl-2-oxo-2H-1-benzopyran-7-yl ester], the IC50 in series [1] (Table 1-1) was 21 nM.
With `Cc1c(Cc2cccc(NS(=O)(=O)CC(=O)N(C)C)c2)c(=O)oc2cc(OC(=O)N(C)C)c(Cl)cc12` [Compound 1o-1-3-3, Dimethylcarbamic acid 3-(3-dimethylcarbamoylmethanesulfonylamino-benzyl)-6-chloro-4-methyl-2-oxo-2H-1-benzopyran-7-yl ester], the IC50 in series [1] (Table 1-1) is 16 nM.
With `CNC(=O)CS(=O)(=O)Nc1cccc(Cc2c(C)c3ccc(Oc4nccs4)cc3oc2=O)c1F` [Compound 1o-3-4-2, 2-{2-Fluoro-3-[4-methyl-2-oxo-7-(thiazol-2-yloxy)-2H-1-benzopyran-3-ylmethyl]phenylsulfamoyl}-N-methyl-acetamide], the IC50 in series [1] (Table 2) came to 325 nM. Further, in series [2] (100 mg/kg body weight), the AUC was 367 µM·h.
